Measured values: ChEMBL document CHEMBL1159181, “Short and unexpectedly potent difluorostatone type inhibitors of HIV-1 protease” (Bioorg Med Chem Lett, 1993)

Biological target: Human immunodeficiency virus type 1 protease (Human immunodeficiency virus 1, UniProt Q72874)
Assay: Tested for inhibitory activity against the recombinant HIV-1 protease

First: CC(C)(C)[C@H](NC(=O)OCc1ccccc1)C(=O)NC(Cc1ccccc1)C(=O)C(F)(F)C(=O)NCc1ccccc1 (stereo partly drawn)
Second: CC(C)CC(NC(=O)OCc1ccccc1)C(=O)NC(Cc1ccccc1)C(=O)C(F)(F)C(=O)NCc1ccccc1 (stereo not drawn)
The IC50 of the first is 28000-fold lower: 0.027 µM for the first, 750 µM for the second.

First: CC(C)C(NC(=O)OCc1ccccc1)C(=O)NC(Cc1ccccc1)C(O)C(F)(F)C(=O)NCc1ccccc1 (stereo not drawn)
Second: CC(C)C(NC(=O)OCc1ccccc1)C(=O)NC(Cc1ccccc1)C(=O)C(F)(F)C(=O)CCc1ccccc1 (stereo not drawn)
The IC50 of the first is 50000-fold higher: 5000 µM for the first, 0.1 µM for the second. The second is the more potent here.

Compared with `NC(=O)C(F)(F)C(=O)C(Cc1ccccc1)NC(=O)OCc1ccccc1` (stereo not drawn), `CC(C)(C)OC(=O)NC(Cc1ccccc1)C(=O)C(F)(F)C(=O)NCc1ccccc1` (stereo not drawn) is 75000-fold lower in IC50: 300 µM for the first, 0.004 µM for the second. The second is the more potent here.

First: CON[C@H](C(=O)N[C@H](C(=O)NC(=O)C(F)(F)C(=O)[C@H](Cc1ccccc1)NC(=O)[C@H](C)NC(=O)[C@H](C)NC(=O)[C@H](CO)NC(=O)OC(C)(C)C)C(C)C)C(C)C
Second: CC(C)(C)OC(=O)NC(C[Si](C)(C)C)C(=O)C(F)(F)C(=O)NCc1ccccc1 (stereo not drawn)
The Ki of the first is 64-fold higher: 160 µM for the first, 2.5 µM for the second. The second binds more tightly here.

Going from `CC(C)(C)OC(=O)NC(Cc1ccc(O)cc1)C(=O)C(F)(F)C(=O)NCc1ccccc1` (stereo not drawn) to `CC(C)(C)CNC(=O)C(F)(F)C(=O)C(Cc1ccccc1)NC(=O)OCc1ccccc1` (stereo not drawn), the Ki rises from 0.0003 µM to 0.65 µM (2200-fold).

Going from `O=C(Cc1ccccc1)NCC(F)(F)C(=O)C(Cc1ccccc1)NC(=O)OCc1ccccc1` (stereo not drawn) to `O=C(NC(Cc1ccccc1)C(=O)C(F)(F)C(=O)NCc1ccccc1)OCc1ccccc1` (stereo not drawn), the Ki falls from 60000 µM to 0.0006 µM. The second binds more tightly here.

First: CN(Cc1ccccc1)C(=O)C(=O)C(=O)C(Cc1ccccc1)NC(=O)OCc1ccccc1 (stereo not drawn)
Second: CCC[C@H](NC(=O)OCc1ccccc1)C(=O)NC(Cc1ccccc1)C(=O)C(F)(F)C(=O)NCc1ccccc1 (stereo partly drawn)
The Ki of the first is 12-fold higher: 5000 µM for the first, 400 µM for the second.

Compared with `O=C(NC(Cc1cccc2ccccc12)C(=O)C(F)(F)C(=O)NCc1ccccc1)OCc1ccccc1` (stereo not drawn), `CC(C)C(NC(=O)OCc1ccccc1)C(=O)NC(Cc1ccccc1)C(=O)C(F)(F)C(=O)NCc1ccccc1` (stereo not drawn) is lower in Ki: over 1000 µM for the first, 0.001 µM for the second.

First: C[Si](C)(C)CC(NC(=O)OCc1ccccc1)C(=O)C(F)(F)C(=O)NCc1ccccc1 (stereo not drawn)
Second: C[Si](C)(C)CNC(=O)C(F)(F)C(=O)C(Cc1ccccc1)NC(=O)OCc1ccccc1 (stereo not drawn)
The Ki of the first is 20-fold higher: 12 µM for the first, 0.6 µM for the second. The second binds more tightly here.
